Assay results: ChEMBL document CHEMBL1135957, “Novel 1',1'-chain substituted Delta(8)-tetrahydrocannabinols” (Bioorg Med Chem Lett, 2002)

Legend:
Cannabinoid receptor 1 = Cannabinoid receptor 1 (Rattus norvegicus, UniProt P20272); test: Binding affinity for Cannabinoid receptor 1 by the ability to displace radiolabeled CP-55940 from purified rat forebrain synaptosomes; type: subcellular, Brain
Cannabinoid receptor 2 = Cannabinoid receptor 2 (Mus musculus, UniProt P47936); test: Binding affinity for Cannabinoid receptor 2 by the ability to displace radiolabeled CP-55940 from mouse spleen synaptosomes; type: subcellular
Sequence of Cannabinoid receptor 2 (P47936 whole entry): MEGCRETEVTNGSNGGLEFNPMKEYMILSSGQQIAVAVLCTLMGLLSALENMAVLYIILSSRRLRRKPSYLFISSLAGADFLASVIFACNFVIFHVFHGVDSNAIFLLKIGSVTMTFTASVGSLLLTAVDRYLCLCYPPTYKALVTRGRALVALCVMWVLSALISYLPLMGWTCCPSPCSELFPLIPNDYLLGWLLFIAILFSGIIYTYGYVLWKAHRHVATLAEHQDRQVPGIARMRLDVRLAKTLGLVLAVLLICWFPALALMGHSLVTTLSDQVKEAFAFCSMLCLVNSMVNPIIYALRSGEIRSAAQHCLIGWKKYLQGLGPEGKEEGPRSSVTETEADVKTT

Sequence of Cannabinoid receptor 1 (P20272 whole entry): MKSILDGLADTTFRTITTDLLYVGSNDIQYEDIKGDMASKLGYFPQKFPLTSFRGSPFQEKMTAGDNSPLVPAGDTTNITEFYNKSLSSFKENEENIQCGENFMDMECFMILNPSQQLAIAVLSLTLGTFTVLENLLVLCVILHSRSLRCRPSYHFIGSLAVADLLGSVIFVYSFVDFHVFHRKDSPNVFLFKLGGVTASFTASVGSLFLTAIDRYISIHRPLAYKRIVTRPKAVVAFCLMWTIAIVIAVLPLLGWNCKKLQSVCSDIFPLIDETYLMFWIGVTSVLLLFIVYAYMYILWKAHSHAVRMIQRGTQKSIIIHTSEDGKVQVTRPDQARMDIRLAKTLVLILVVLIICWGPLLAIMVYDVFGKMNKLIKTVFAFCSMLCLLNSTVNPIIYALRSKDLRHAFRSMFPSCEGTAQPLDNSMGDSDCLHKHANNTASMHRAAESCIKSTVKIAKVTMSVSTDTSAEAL

Row | SMILES | Ki (Cannabinoid receptor 1) | Ki (Cannabinoid receptor 2)
1 | C=C(C)C1CCC(C)=CC1c1c(O)cc(C2(CCCCCC)CC2(Br)Br)cc1O (configuration not stated) | 189 nM | 63 nM
2 | C=C(C)C1CCC(C)=CC1c1c(O)cc(C2(CCCCCC)CC2(Cl)Cl)cc1O (configuration not stated) | 665 nM | 33 nM
3 | C=C(C)C1CCC(C)=CC1c1c(O)cc(C2(CCCCCC)SCCS2)cc1O (configuration not stated) | 136 nM | 50 nM
4 | C=C(C)[C@@H]1CCC(C)=C[C@H]1c1c(O)cc(CCCCC)cc1O [CANNABIDIOL] | – | 230 nM
5 | CCCCCCC(C)(C)c1cc(O)c2c(c1)OC(C)(C)[C@@H]1CC=C(C)C[C@@H]21 | 0.83 nM | 0.49 nM
6 | CCCCCCC1(c2cc(O)c3c(c2)OC(C)(C)[C@@H]2CC=C(C)C[C@@H]32)CC1(Br)Br (some centres not stated) | 0.71 nM | 1 nM
7 | CCCCCCC1(c2cc(O)c3c(c2)OC(C)(C)[C@@H]2CC=C(C)C[C@@H]32)CC1(Cl)Cl (some centres not stated) | 1.27 nM | 0.29 nM
8 | C=C(C)C1CCC(C)=CC1c1c(O)cc(C2(CCCCCC)CC2)cc1O (configuration not stated) | 59 nM | 99 nM
9 | CCCCCCC1(c2cc(O)c3c(c2)OC(C)(C)[C@@H]2CC=C(C)C[C@@H]32)CC1 | 0.44 nM | 0.86 nM
